pEC50: −log10 of the molar value. Non-standard residues stand in square brackets, D forms with d. Residues, ends and D or L forms follow the SMILES beside them. *: point of attachment. Tyr(3-I) = N[C@@H](Cc1ccc(O)c(I)c1)C(=O)O; dNMe2Nal = CN[C@H](Cc1ccc2ccccc2c1)C(=O)O; 2Nal = N[C@@H](Cc1ccc2ccccc2c1)C(=O)O; d2Nal = N[C@H](Cc1ccc2ccccc2c1)C(=O)O; Acetyl(4-pyridyl) = O=C(Cc1ccncc1)*; d(hPhe) = N[C@H](CCc1ccccc1)C(=O)O; NMeF = CN[C@@H](Cc1ccccc1)C(=O)O; dPhg = N[C@@H](C(=O)O)c1ccccc1; NHPhenethyl = c1ccc(CCN*)cc1; dNle = CCCC[C@@H](N)C(=O)O; dOrn = NCCC[C@@H](N)C(=O)O; Inp = O=C(O)C1CCNCC1; Ava = NCCCCC(=O)O Bounds are passed on as bounds.

The target of one test is rat pituitary cells (Rattus norvegicus, UniProt O08725).
rat pituitary cells, sequence (O08725 whole entry): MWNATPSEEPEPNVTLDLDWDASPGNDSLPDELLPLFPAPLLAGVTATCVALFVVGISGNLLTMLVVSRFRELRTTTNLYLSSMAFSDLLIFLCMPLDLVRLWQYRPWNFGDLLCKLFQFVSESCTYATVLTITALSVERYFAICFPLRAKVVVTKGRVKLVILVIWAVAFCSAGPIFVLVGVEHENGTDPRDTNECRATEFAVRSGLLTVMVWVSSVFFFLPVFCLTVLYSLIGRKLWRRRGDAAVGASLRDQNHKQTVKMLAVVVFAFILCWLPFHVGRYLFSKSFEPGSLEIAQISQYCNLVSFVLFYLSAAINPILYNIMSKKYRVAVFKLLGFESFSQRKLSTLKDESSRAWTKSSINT
Conditions: not given
As to the method:
Pituitaries from ten rats were removed, the posterior pituitary discarded and the anterior pituitary placed in Hanks' Balanced Salt Solution (HBSS: without calcium chloride, w/o magnesium chloride, w/o magnesium sulfate; Gibco) containing 20 mM HEPES (Gibco) and 100 U/ml penicillin streptomycin (PS: JRH Biosciences). Under sterile conditions, pituitaries were rinsed twice then minced into small fragments with a razor blade. […] After the incubation, fragments were triturated to yield small clumps and single cells. The cells were centrifuged 1000× g for 5 min, resuspended, counted and plated at a final cell concentration of 100,000 cells/ml. Incubation media was DME low glucose media w/NaHCO3 (Gibco) containing 20 mM hepes, 100 U/ml PS and 10% FBS (Hyclone A-111-L). Cells were plated at 0.5 ml per well in 48 well plates (Falcon) and incubated at 37° C. in 5% C02 for three days. For challenges to determine release of other pituitary hormones cells were plated at 200,000 cells per ml with 2 ml per well of a Swell plate (Corning). Challenge: A (inip)bbFK-NH2 stock (or other GHRP) concentration of 1 mM was made in DMSO and diluted with warmed media approximately 30 min prior to use. The highest concentration of DMSO in media was 0.1%. Stock solutions (1 mM) of rat GHRH, somatostatin (Sigma) and GHRP antagonist HwkWfK were made fresh in media and diluted appropriately. The media used in all challenges and washing steps was DME low glucose with 20 mM Hepes, 100 U/ml PS, 10% FBS. Media was warmed to 37° C. and gassed by placing it into the incubator prior to challenge. On day three, the media was discarded and fresh media (approximately 1 ml) added for the first of three washes. After the last wash, the plate was placed back in the incubator for a 15 min pre-incubation. Then cells were washed 2× (with warmed and gassed media) and fresh 0.5 ml media were added for the second 15 min. pre-incubation. After the second pre-incubation cells were washed 2× as above and 0.5 ml of control and test solutions were added for a final 15 min incubation. After this incubation, the media were removed for subsequent GH ELISA. GH ELISA: A two-site ELISA was used to determine rat GH concentration in the media. […] After blocking and washing, standard (rat GH reference preparation: Parlow) and challenge media is diluted 1:20 prior to GH assay were added for a 1 hr room temperature incubation. STATISTICS: The mean for each group was determined and analyzed by one-way analysis of variance with a post-hoc Student-Newman-Keuls. Significance is defined as P<0.05. The EC50 was calculated using a 4-parameter curve-fit program (Kaleidagraph). Three to four independent EC50s were used to derive the mean and SEM. RIA of pituitary hormones: LH, FSH, TSH, and Prolactin were determined with commercially available kits from Amersham, and ACTH levels were determined by a RIA kit from ICN. CALCIUM FLUX EXPERIMENT: Pituitary cells were plated on fibronectin (Collaborative Research) coated two-chambered slide wells (Nunc). After four days in monolayer culture cells were rinsed three times with HBSS (Gibco) in 1% BSA and 15 mM HEPES and then incubated for 30 min at 37° C. with 5 μM Indo-1 AM (Molecular Probes, Eugene) in HBSS also containing 1% pluronic F127 (Molecular Probes). The cells were rinsed once and fresh media added for RT incubation. […] C^++ flux was imaged with a Meridian ACAS 570 using stage scanning at 21 second intervals.
`NCCCC[C@H](NC(=O)[C@H](Cc1ccccc1)NC(=O)[C@@H](Cc1c[nH]c2ccccc12)NC(=O)[C@@H](Cc1c[nH]c2ccccc12)NC(=O)[C@@H](N)Cc1ccc(O)cc1)C(N)=O` [Y w w F K amide] (H-Y[dW][dW]FK-NH2) gave a pEC50 of 6.00.

The test is the same for the next values; noted with them: read-out: PIT Cell EC50; Table III, formula IV compounds; GH release, 15 min incubation.
With `C[C@@H](NC(=O)[C@@H](Cc1ccc2ccccc2c1)NC(=O)CCCCN)C(=O)N[C@@H](Cc1ccccc1)C(=O)N[C@@H](CCCCN)C(N)=O` [(Ava) b a F K amide] (H-[Ava][d2Nal][dA]FK-NH2), the pEC50 is under 6.52. For the compound `C[C@H](NC(=O)[C@@H](Cc1ccc2ccccc2c1)NC(=O)[C@@H](Cc1ccc2ccccc2c1)NC(=O)CCCCN)C(=O)N[C@@H](CCCCN)C(N)=O` [(Ava) b b A K amide] (H-[Ava][d2Nal][d2Nal]AK-NH2), the pEC50 was under 6.82. Same read-out and setting: in the case of `CN(C(=O)C1CCNCC1)[C@H](Cc1ccc2ccccc2c1)C(=O)N(C)[C@H](Cc1ccc2ccccc2c1)C(=O)N[C@@H](Cc1ccccc1)C(=O)N[C@@H](CCCCN)C(N)=O` [(inip) nmb nmb F K amide] (H-[Inp][dNMe2Nal][dNMe2Nal]FK-NH2) it was 8.85; in that of `CN(C(=O)[C@@H](Cc1c[nH]c2ccccc12)NC(=O)[C@@H](Cc1c[nH]c2ccccc12)NC(=O)[C@@H](N)Cc1c[nH]cn1)[C@@H](Cc1ccccc1)C(=O)N[C@@H](CCCCN)C(N)=O` [H w w nmF K amide] (H-H[dW][dW][NMeF]K-NH2), 7.43. On the same count and under the same terms, the result for `C[C@@H](NC(=O)CCCCN)C(=O)N[C@H](Cc1ccc2ccccc2c1)C(=O)N[C@@H](Cc1ccccc1)C(=O)N[C@@H](CCCCN)C(N)=O` [(Ava) a b F K amide] (H-[Ava][dA][d2Nal]FK-NH2) reads under 6.52; that for `CN(C)C(=O)[C@H](Cc1ccccc1)NC(=O)[C@@H](Cc1ccc2ccccc2c1)NC(=O)[C@@H](Cc1ccc2ccccc2c1)N(C)C(=O)C1CCNCC1` [(inip) nmb b F dam] (H-[Inp][dNMe2Nal][d2Nal]F-NMe2), 8.22.

For the compound `NCCCC[C@H](NC(=O)[C@H](Cc1ccccc1)NC(=O)[C@@H](Cc1ccc2ccccc2c1)NC(=O)[C@@H](Cc1ccc2ccccc2c1)NC(=O)C1CCNCC1)C(=O)N[C@@H](Cc1ccc(O)c(I)c1)C(N)=O` [(inip) b b F K Y(I) amide] (H-[Inp][d2Nal][d2Nal]FK[Tyr(3-I)]-NH2), the pEC50 is 9.16. `NCCCCC(=O)N[C@H](Cc1ccc2ccccc2c1)C(=O)N[C@H](Cc1ccc2ccccc2c1)C(=O)N[C@@H](C(=O)N[C@@H](CCCCN)C(N)=O)c1ccccc1` [(Ava) b b (pG) K amide] (H-[Ava][d2Nal][d2Nal][dPhg]K-NH2): the pEC50 is under 7.00. Still for that read-out and setting: in the case of `NCCCC[C@H](NC(=O)[C@H](Cc1ccccc1)NC(=O)[C@@H](Cc1ccc2ccccc2c1)NC(=O)[C@@H](Cc1ccc2ccccc2c1)NC(=O)Cc1ccncc1)C(N)=O` [(pac) b b F K amide] ({Acetyl(4-pyridyl)}-[d2Nal][d2Nal]FK-NH2) it was 7.00; in that of `CNC(=O)[C@@H](Cc1ccccc1)NC(=O)[C@@H](Cc1ccc2ccccc2c1)NC(=O)[C@@H](Cc1ccc2ccccc2c1)NC(=O)C1CCNCC1` [(inip) b b f mam] (H-[Inp][d2Nal][d2Nal][dF]-NHMe), 8.15. Same read-out and setting: in the case of `CN(C)C(=O)C(Cc1ccccc1)NC(=O)[C@@H](Cc1ccc2ccccc2c1)NC(=O)[C@@H](Cc1ccc2ccccc2c1)NC(=O)C1CCNCC1` (single isomer, unassigned) [(inip) b b f dam] it was 7.92.

The same test, now with this note: read-out: PIT Cell EC50; Table IV, formula III compounds; GH release, 15 min incubation.
For `NCCCCC(=O)N[C@H](Cc1ccc2ccccc2c1)C(=O)N[C@@H](Cc1ccccc1)C(=O)N[C@@H](CCCCN)C(N)=O` [(Ava) b F K amide] (H-[Ava][d2Nal]FK-NH2), the pEC50 was under 6.52. Regarding `NCCCCC(=O)N[C@H](Cc1ccc2ccccc2c1)C(=O)N[C@H](Cc1ccc2ccccc2c1)C(=O)NCCc1ccccc1` [(Ava) b b fem] (H-[Ava]-[d2Nal]-[d2Nal]-NHPhenethyl), the pEC50 was under 6.70. The same measure, in the same setting: in the case of `O=C(N[C@H](Cc1ccc2ccccc2c1)C(=O)N[C@H](Cc1ccc2ccccc2c1)C(=O)NCCc1ccccc1)C1CCNCC1` [(inip) b b fem, (inip)-DβNal-DβNal-(N-2-phenylethyl) amide] (H-[Inp]-[d2Nal]-[d2Nal]-NHPhenethyl) it was 8.69; in that of `NC(=O)[C@H](Cc1ccccc1)NC(=O)[C@@H](Cc1ccc2ccccc2c1)NC(=O)[C@@H](CCc1ccccc1)NC(=O)C1CCNCC1` [(inip) hf b F amide] (H-[Inp][d(hPhe)][d2Nal]F-NH2), 7.57.

For `NCCC[C@@H](NC(=O)[C@@H](Cc1ccc2ccccc2c1)NC(=O)[C@@H](Cc1ccc2ccccc2c1)NC(=O)C1CCNCC1)C(N)=O` [(inip) b b o amide] (H-[Inp][d2Nal][d2Nal][dOrn]-NH2), the pEC50 is 8.00. In the case of `CCCC[C@@H](NC(=O)[C@@H](Cc1ccc2ccccc2c1)NC(=O)C1CCNCC1)C(=O)N[C@@H](Cc1ccccc1)C(N)=O` [(inip) b nl F amide] (H-[Inp][d2Nal][dNle]F-NH2), the pEC50 is 7.14. On the same count and under the same terms, in the case of `CCCC[C@@H](NC(=O)C1CCNCC1)C(=O)N[C@H](Cc1ccc2ccccc2c1)C(=O)N[C@@H](Cc1ccccc1)C(N)=O` [(inip) nl b F amide] (H-[Inp][dNle][d2Nal]F-NH2) it was 7.00; in that of `O=C(N[C@H](Cc1ccc2ccccc2c1)C(=O)N[C@H](Cc1ccc2ccccc2c1)C(=O)N[C@@H](Cc1ccc(O)c(I)c1)C(=O)O)C1CCNCC1` [(inip) b b Y(I) acid, (inip)-DβNal-DβNal-(3-I-Tyr)] (H-[Inp][d2Nal][d2Nal][Tyr(3-I)]-OH), 10.00.

The same test, now with this note: read-out: PIT Cell EC50; Table V, formula II compounds; GH release, 15 min incubation.
Regarding `CN(C(=O)[C@@H](Cc1ccc2ccccc2c1)NC(=O)C1CCNCC1)[C@@H](CN=[N+]=[N-])Cc1ccc2ccccc2c1` [(inip) b miz], the pEC50 is 7.92. On to `O=C(N[C@H](Cc1ccc2ccccc2c1)C(=O)N[C@H](Cc1ccc2ccccc2c1)C(=O)O)C1CCNCC1` [(inip) b b acid] (H-[Inp]-[d2Nal]-[d2Nal]-OH), for which the pEC50 is 7.09. On the same count and under the same terms, the result for `NC(=O)[C@@H](Cc1ccc2ccccc2c1)NC(=O)[C@@H](Cc1ccc2ccccc2c1)NC(=O)C1CCNCC1` [(inip) b b amide] (H-[Inp]-[d2Nal]-[d2Nal]-NH2) reads 7.75; that for `CC(=O)NC[C@@H](Cc1ccc2ccccc2c1)N(C)C(=O)[C@@H](Cc1ccc2ccccc2c1)NC(=O)C1CCNCC1` [(inip) b mbm Ac], 7.05. Same read-out and setting: the result for `CN(C(=O)[C@@H](Cc1ccc2ccccc2c1)NC(=O)C1CCN(C(=O)OC(C)(C)C)CC1)[C@@H](CN)Cc1ccc2ccccc2c1` [Boc (inip) b mbm] reads 7.89; that for `NCCCCC(=O)N[C@H](Cc1ccc2ccccc2c1)C(=O)N[C@@H](CO)Cc1ccc2ccccc2c1` [(Ava) b bol], 6.72. Consider `O=C(N[C@H](Cc1ccc2ccccc2c1)C(=O)N[C@H](CO)Cc1ccc2ccccc2c1)C1CCNCC1` [(inip) b Bol], for which the pEC50 was 7.00.

Staying with this test, now noted: read-out: PIT Cell EC50; Table VI, retroinverso compounds of formula V; GH release, 15 min incubation.
With `NCCCCC(=O)N[C@H](Cc1ccccc1)C(=O)N[C@@H](Cc1ccc2ccccc2c1)C(=O)N[C@@H](Cc1ccc2ccccc2c1)C(=O)N[C@@H](CCCCN)C(N)=O` [(Ava) f B B K amide, (5-Aminovaleryl)-DPhe-βNal-βNal-Lys-amide] (H-[Ava][dF][2Nal][2Nal]K-NH2), the pEC50 was 7.44.

The test is the same for the next values; noted with them: read-out: “Pit” Cell EC50; Table II, prior art compounds; GH release, 15 min incubation.
For the compound `C[C@H](N)C(=O)N[C@@H](Cc1c[nH]cn1)C(=O)N[C@H](Cc1ccc2ccccc2c1)C(=O)N[C@@H](C)C(=O)N[C@@H](Cc1c[nH]c2ccccc12)C(=O)N[C@H](Cc1ccccc1)C(=O)N[C@@H](CCCCN)C(N)=O` [GHRP 1, Ala-His-D βNal-Ala-Trp-D Phe-Lys-NH2, reference compound] (H-AH[d2Nal]AW[dF]K-NH2), the pEC50 was 8.85.

For orientation: pEC50 means the EC50 on a negative log10 scale, so that one unit is a factor of ten.

The values are drawn from patent publication US7094869B2, “Low molecular weight peptidomimetic growth hormone secretagogues” (Genentech, Inc., priority 1994, dated 2006).
